In patent US10766866B2, “Deterrents for arthropods and marine organisms” (priority 2017, dated 2020):

Experiments:
[1] = target: T1, PaOctR (Periplaneta octopamine receptor), cloned α-like OctR (Periplaneta americana, UniProt Q7YWB7); test: OctR activation: change in intracellular calcium (CALCIUM 6QR dye, FlexStation 3) in stably transfected mammalian cells; format: cell-based; conditions: agonist
T1 construct: Gq calcium readout
T1 sequence (Q7YWB7 1-628): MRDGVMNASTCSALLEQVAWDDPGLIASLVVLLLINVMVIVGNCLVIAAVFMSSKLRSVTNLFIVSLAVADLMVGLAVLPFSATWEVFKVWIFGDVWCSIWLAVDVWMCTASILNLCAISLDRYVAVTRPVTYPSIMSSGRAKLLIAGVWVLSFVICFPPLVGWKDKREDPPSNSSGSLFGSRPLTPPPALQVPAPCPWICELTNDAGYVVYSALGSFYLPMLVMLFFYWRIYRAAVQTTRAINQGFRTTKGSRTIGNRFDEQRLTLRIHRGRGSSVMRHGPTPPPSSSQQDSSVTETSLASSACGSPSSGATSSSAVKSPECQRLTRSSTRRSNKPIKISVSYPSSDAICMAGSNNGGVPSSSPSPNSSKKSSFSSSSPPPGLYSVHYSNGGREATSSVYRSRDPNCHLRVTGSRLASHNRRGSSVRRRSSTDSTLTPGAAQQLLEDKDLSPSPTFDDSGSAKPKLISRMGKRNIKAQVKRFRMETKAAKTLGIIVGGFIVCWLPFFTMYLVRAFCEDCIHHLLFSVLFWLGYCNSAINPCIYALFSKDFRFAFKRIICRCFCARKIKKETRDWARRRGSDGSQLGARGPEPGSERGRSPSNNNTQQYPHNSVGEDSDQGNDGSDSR
How it was run: (§1)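 Matched-expression stable clones, checked by equilibrium [3H]rauwolscine binding on membranes in 50 mM Tris pH 7.4, 25 °C, were used. Activation is reported as the time course of calcium-sensitive CALCIUM 6QR fluorescence.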

[2] = target: T2, AgAOctR (Anopheles octopamine receptor isoform A), cloned α-like OctR (Anopheles gambiae, UniProt Q7PRZ8); test: as above; format: cell-based; conditions: agonist
T2 construct: Gq calcium readout
T2 sequence (Q7PRZ8 1-592): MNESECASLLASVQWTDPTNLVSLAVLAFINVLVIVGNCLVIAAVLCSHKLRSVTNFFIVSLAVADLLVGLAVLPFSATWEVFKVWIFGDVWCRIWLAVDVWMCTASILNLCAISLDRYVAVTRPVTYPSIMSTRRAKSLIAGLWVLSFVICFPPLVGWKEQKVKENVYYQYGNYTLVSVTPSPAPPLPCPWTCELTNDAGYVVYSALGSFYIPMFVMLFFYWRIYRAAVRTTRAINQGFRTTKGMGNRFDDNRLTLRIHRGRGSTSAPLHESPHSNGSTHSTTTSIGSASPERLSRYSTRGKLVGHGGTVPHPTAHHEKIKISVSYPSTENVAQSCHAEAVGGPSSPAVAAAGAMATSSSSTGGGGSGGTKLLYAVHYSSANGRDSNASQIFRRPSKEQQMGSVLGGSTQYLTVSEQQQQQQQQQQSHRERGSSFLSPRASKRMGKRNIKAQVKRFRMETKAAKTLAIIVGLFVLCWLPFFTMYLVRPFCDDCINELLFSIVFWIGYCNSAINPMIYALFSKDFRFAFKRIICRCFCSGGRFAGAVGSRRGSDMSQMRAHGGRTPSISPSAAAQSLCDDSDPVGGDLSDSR
How it was run: as §1

[3] = tested on: Ixodes scapularis tick OctR (IsTOctR); test: OctR activation, change in intracellular calcium; format: cell-based; conditions: Ixodes tick OctR over Homo sapien α2-AR subtypes
Text: (§2) Functional expression of cloned arthropod OctRs and human α2-ARs: The cDNAs for α-like OctRs from different arthropod species (e.g., Anopheles gambiae, Aedes aegypti, Periplaneta americana, Drosophila melanogaster, Ixodes scapularis, Balanus improvises) and for α2-AR subtypes from humans were individually subcloned into mammalian expression vectors. These plasmids, which harbor a resistance gene for the selection drug G418 and the cDNA sequence for the receptor of interest, were individually transfected into mammalian cells using a calcium phosphate precipitation method. G418 selection was then employed to generated stable clonal cell lines. Utilizing rapid filtration radioligand binding techniques, the cell surface density of receptor expression of the individual clonal cell lines was determined at equilibrium and those with similar high levels of expression were selected for further experiments. Briefly, binding conditions were 50 mM Tris binding buffer pH 7.4 at 25° C. and an ice-cold wash buffer 10 mM Tris-HCl, pH 7.4). The radioligand was [3H]rauwolscine and non-specific binding was determined in the presence of 10 μM atipamezole. Following the addition of membranes prepared from the clonal cell lines, samples were mixed and allowed 2 hr. to reach equilibrium before rapid filtration and washing through 0.3% PEI-treated GF/C filters. The radioactivity remaining on the filters was quantified by scintillation counting. Receptor density (Bmax) was back calculated knowing the specific activity of the radioligand and applying the equation for a square hyperbola model: Bmax=(Y·(KD+X))/X, where Y is [specifically bound radioligand] and X=[radio ligand concentration]. The affinity (KD) for the radioligand for each receptor was determined in separate saturation isotherm binding experiments using the same binding conditions as describe above.
(§3) Measurement of OctR activation by measuring changes in intracellular calcium: Activation of arthropod α-like OctRs increases intracellular calcium via a Gq-coupling mechanism. This involves activation of phospholipase C leading to an increase in intracellular inositol triphosphate (IP3) which then activates IP3-gated calcium channels in the endoplasmic reticulum causing a transient rise in intracellular calcium. These changes in intracellular calcium upon OctR activation were measured by loading cells with intracellular calcium sensitive dye CALCIUM 6QR and reading the change in calcium-induced fluorescent signal over time on a FlexStation 3 microplate reader.

[4] = tested on: Periplaneta americana OctR (PaOctR); test: OctR activation, change in intracellular calcium; format: cell-based; conditions: Periplaneta cockroach OctR over Homo sapien α2-AR subtypes
Text: as §2, §3

[5] = tested on: Anopheles gambiae mosquito isoform A OctR (AgAOctR); test: OctR activation, change in intracellular calcium; format: cell-based; conditions: AgAOctR over Homo sapien α2-AR subtypes
Text: as §2, §3

[6] = tested on: IsTOctR (Ixodes octopamine receptor), cloned α-like OctR; test: OctR activation: change in intracellular calcium (CALCIUM 6QR dye, FlexStation 3) in stably transfected mammalian cells; format: cell-based, Ixodes scapularis; conditions: agonist, read-out: IsTOctR (Ixodes octopamine receptor) EC50
Text: as §2, §3

Question: For `C=C(c1cnc[nH]1)c1cccc(C)c1C` [AZ0027], which EC50 [1] is on record?
Answer: 0.44 ± 0.23 nM

Question: And the EC50 [2]?
Answer: 0.013 ± 0.0046 nM

Question: What about the “selectivity Ki(Hsα2-AR)/EC50(OctR)” value [3] of the same compound?
Answer: highly selective

Question: What about the “selectivity Ki(Hsα2-AR)/EC50(OctR)” value [4] of the same compound?
Answer: highly selective

Question: What about the “selectivity Ki(Hsα2-AR)/EC50(OctR)” value [5] of the same compound?
Answer: highly selective

Question: And the EC50 [6]?
Answer: 0.51 ± 0.28 nM
